Blank lines part the entries; values can stand above or below the compound they belong to.
SMILES: Br.Br.CN(C(=O)c1ccc(C(F)(F)F)cc1)c1ccc(Oc2ccc3c(c2)cc(C(=O)N2CCN(Cc4cccnc4)CC2)n3C)nc1 [Example 559, N-Methyl-N-{6-[1-methyl-2-(4-pyridin-3-ylmethylpiperazine-1-carbonyl)-1H-indol-5-yloxy]pyridin-3-yl}-4-trifluoromethyl-benzamide dihydrobromide]
melting point: 191 to 193 °C

SMILES: Br.Br.CN(C(=O)c1ccc(C(F)(F)F)cc1)c1ccc(Oc2ccc3c(c2)cc(C(=O)N2CCN(Cc4ccc(C#N)cn4)CC2)n3C)nc1 [Example 570, N-(6-{2-[4-(5-Cyanopyridin-2-ylmethyl)piperazine-1-carbonyl]-1-methyl-1H-indol-5-yloxy}pyridin-3-yl)-N-methyl-4-trifluoromethyl-benzamide dihydrobromide]
melting point: 211 to 215 °C

SMILES: Cc1cc(C(F)(F)F)ccc1C(=O)Nc1ccc(Oc2ccc3cc(C(=O)N4CCN(Cc5ccc6c(c5)OC(F)(F)O6)CC4)n(C)c3c2)nc1.Cl
melting point: 207.9 to 211.5 °C

SMILES: Br.Cn1c(C(=O)N2CCN(Cc3ccc(OCC(F)F)cc3)CC2)cc2ccc(Oc3ccc(NC(=O)c4ccc(C(F)(F)F)cc4)cn3)cc21 [Example 479, N-[6-(2-{4-[4-(2,2-Difluoroethoxy)benzyl]piperazine-1-carbonyl}-1-methyl-1H-indol-6-yloxy)pyridin-3-yl]-4-trifluoromethyl-benzamide hydrobromide]
melting point: 260.7 to 261.2 °C

SMILES: CN(C(=O)c1ccc(C(F)(F)F)cc1)c1cnc(Oc2ccc3c(c2)cc(C(=O)N2CCN(Cc4ccc(C#N)cc4)CC2)n3C)nc1.O=C(O)/C=C\C(=O)O [Example 383, N-(2-{2-[4-(4-Cyanobenzyl)piperazine-1-carbonyl]-1-methyl-1H-indol-5-yloxy}pyrimidin-5-yl)-N-methyl-4-trifluoromethylbenzamide maleate]
melting point: 154 to 156 °C

SMILES: Cc1ccc(S(=O)(=O)N(C)c2ccc(Oc3ccc4c(c3)cc(C(=O)N3CCN(Cc5ccc(OCC(F)(F)F)cc5)CC3)n4C)nc2)cc1.Cl
melting point: 239.1 to 239.8 °C

SMILES: COc1ccc(CN2CCN(C(=O)c3cc4cc(Oc5ccc(N(C)C(=O)c6ccc(-n7cccc7)nc6)cn5)ccc4n3C)CC2)cc1.O=C(O)C(=O)O.O=C(O)C(=O)O [Example 227, N-(6-{2-[4-(4-Methoxybenzyl)piperazine-1-carbonyl]-1-methyl-1H-indol-5-yloxy}pyridin-3-yl)-N-methyl-6-pyrrol-1-ylnicotinamide dioxalate]
melting point: 185 to 187 °C

SMILES: CN(c1ccc(Oc2ccc3cc(C(=O)N4CCN(Cc5ccc(OCC(F)(F)F)cc5)CC4)n(C)c3c2)nc1)S(C)(=O)=O.Cl
melting point: 252.7 to 253.6 °C

SMILES: CS(=O)(=O)O.CS(=O)(=O)O.Cn1c(C(=O)N2CCN(Cc3ccccn3)CC2)cc2cc(Oc3ccc(NC(=O)c4ccc(C(F)(F)F)cc4)cn3)ccc21 [Example 560, N-{6-[1-Methyl-2-(4-pyridin-2-ylmethylpiperazine-1-carbonyl)-1H-indol-5-yloxy]pyridin-3-yl}-4-trifluoromethylbenzamide bismethanesulfonate]
melting point: 137 to 139 °C

SMILES: CN(c1ccc(Oc2ccc3cc(C(=O)N4CCN(Cc5ccc(OCC(F)(F)F)cc5)CC4)[nH]c3c2)nc1)S(=O)(=O)c1ccc(Cl)c(Cl)c1.Cl
melting point: 225.2 to 229.3 °C

SMILES: CN(c1ccc(Oc2ccc3cc(C(=O)N4CCN(Cc5ccc(OCC(F)(F)F)cc5)CC4)[nH]c3c2)nc1)S(C)(=O)=O [Example 285, N-Methyl-N-[6-(2-{4-[4-(2,2,2-trifluoroethoxy)benzyl]piperazine-1-carbonyl}-1H-indol-6-yloxy)pyridin-3-yl]methanesulfonamide]
melting point: 167 to 168.1 °C

SMILES: Br.Cn1c(C(=O)N2CCN(Cc3ccc(O)cc3)CC2)cc2ccc(Oc3ccc(NC(=O)c4ccc(C(F)(F)F)cc4)cn3)cc21 [Example 459, N-(6-{2-[4-(4-Hydroxybenzyl)piperazine-1-carbonyl]-1-methyl-1H-indol-6-yloxy}pyridin-3-yl)-4-trifluoromethylbenzamide hydrobromide]
melting point: 241.4 to 242.7 °C

SMILES: CC(C)CN1CCN(C(=O)c2cc3ccc(Oc4ccc(NC(=O)c5ccc(C(F)(F)F)cc5)cn4)cc3n2C)CC1.Cl
melting point: 270.2 to 272.2 °C

SMILES: CN(c1ccc(Oc2ccc3cc(C(=O)N4CCN(Cc5ccc(OCC(F)(F)F)cc5)CC4)[nH]c3c2)nc1)S(=O)(=O)c1ccc(C(F)(F)F)cc1 [Example 39, N-Methyl-N-[6-(2-{4-[4-(2,2,2-trifluoroethoxy)benzyl]piperazine-1-carbonyl}-1H-indol-6-yloxy)pyridin-3-yl]-4-trifluoromethyl-benzenesulfonamide]
melting point: 200.1 to 200.2 °C

More lines, now with the values ahead:

melting point: 220.2 to 223.5 °C
SMILES: Br.CC(C)Oc1ccc(CN2CCN(C(=O)c3cc4ccc(Oc5ccc(N(C)C(=O)c6ccc(Cl)c(Cl)c6)cn5)cc4n3C)CC2)cc1 [Example 486, 3,4-Dichloro-N-(6-{2-[4-(4-isopropoxybenzyl)piperazine-1-carbonyl]-1-methyl-1H-indol-6-yloxy}pyridin-3-yl)-N-methyl-benzamide hydrobromide]

melting point: 232.8 to 235.6 °C
SMILES: CC(C)N(c1ccc(Oc2ccc3cc(C(=O)N4CCN(Cc5ccc(OCC(F)(F)F)cc5)CC4)n(C)c3c2)nc1)S(=O)(=O)c1ccc(Cl)c(Cl)c1.Cl

melting point: 186.9 to 188.8 °C
SMILES: Br.CN(C(=O)c1ccc(Cl)c(Cl)c1)c1ccc(Oc2ccc3cc(C(=O)N4CCN(Cc5ccc(OCCF)cc5)CC4)n(C)c3c2)nc1 [Example 482, 3,4-Dichloro-N-[6-(2-{4-[4-(2-fluoroethoxy)benzyl]piperazine-1-carbonyl}-1-methyl-1H-indol-6-yloxy)pyridin-3-yl]-N-methyl-benzamide hydrobromide]

melting point: 131 to 132 °C
SMILES: CCOc1ccc(CN2CCN(C(=O)c3cc4cc(Oc5ccc(N(C)C(=O)c6ccc(Cl)c(Cl)c6)c(C)n5)ccc4n3C)CC2)cc1.O=C(O)/C=C\C(=O)O [Example 372, 3,4-Dichloro-N-(6-{2-[4-(4-ethoxybenzyl)piperazine-1-carbonyl]-1-methyl-1H-indol-5-yloxy}-2-methylpyridin-3-yl)-N-methylbenzamide maleate]

melting point: 255.8 to 257.4 °C
SMILES: Br.CC(C)Cc1ccc(CN2CCN(C(=O)c3cc4ccc(Oc5ccc(NC(=O)c6ccc(Cl)c(Cl)c6)cn5)cc4n3C)CC2)cc1 [Example 260, 3,4-Dichloro-N-(6-{2-[4-(4-isobutylbenzyl)piperazine-1-carbonyl]-1-methyl-1H-indol-6-yloxy}pyridin-3-yl)benzamide hydrobromide]

melting point: 175 to 177 °C
SMILES: Br.COc1ccc(CN2CCN(C(=O)c3cc4cc(Oc5ccc(N(C)C(=O)c6ccc(C(F)(F)F)cc6)cn5)ccc4n3C)CC2)cc1OC [Example 345, N-(6-{2-[4-(3,4-Dimethoxybenzyl)piperazine-1-carbonyl]-1-methyl-1H-indol-5-yloxy}pyridin-3-yl)-N-methyl-4-trifluoromethyl-benzamide hydrobromide]

melting point: 165.9 to 167.2 °C
SMILES: CN(c1ccc(Oc2ccc3cc(C(=O)N4CCN(Cc5ccc(OCC(F)(F)F)cc5)CC4)n(C)c3c2)nc1)S(=O)(=O)c1ccc(Cl)c(Cl)c1 [Example 68, 3,4-Dichloro-N-methyl-N-[6-(1-methyl-2-{4-[4-(2,2,2-trifluoro-ethoxy)benzyl]piperazine-1-carbonyl}-1H-indol-6-yloxy)pyridin-3-yl]benzenesulfonamide]

melting point: 138.7 to 139.8 °C
SMILES: Cc1ccc(S(=O)(=O)N(C)c2ccc(Oc3ccc4cc(C(=O)N5CCN(Cc6ccc(OCCF)cc6)CC5)n(C)c4c3)nc2)cc1 [Example 531, N-[6-(2-{4-[4-(2-Fluoroethoxy)benzyl]piperazine-1-carbonyl}-1-methyl-1H-indol-6-yloxy)pyridin-3-yl]-4,N-dimethylbenzene-sulfonamide]

melting point: 143.4 to 147.2 °C
SMILES: CN(c1ccc(Oc2ccc3cc(C(=O)N4CCN(Cc5ccc(OC(F)F)cc5)CC4)n(C)c3c2)nc1)S(=O)(=O)c1ccc(Cl)c(Cl)c1 [Example 515, 3,4-Dichloro-N-(6-{2-[4-(4-difluoromethoxybenzyl)piperazine-1-carbonyl]-1-methyl-1H-indol-6-yloxy}pyridin-3-yl)-N-methyl-benzenesulfonamide]

melting point: 223 to 225 °C
SMILES: Br.Br.COc1ccc(CN2CCN(C(=O)c3cc4cc(Oc5ccc(NC(=O)c6ccc(Cl)c(Cl)c6)cn5)ccc4n3C)CC2)nc1 [Example 388, 3,4-Dichloro-N-(6-{2-[4-(5-methoxypyridin-2-ylmethyl)piperazine-1-carbonyl]-1-methyl-1H-indol-5-yloxy}pyridin-3-yl)benzamide dihydrobromide]

melting point: 195.2 to 196.8 °C
SMILES: CN(c1ccc(Oc2ccc3cc(C(=O)N4CCN(Cc5ccc(OCCF)cc5)CC4)n(C)c3c2)nc1)S(=O)(=O)c1ccc(Cl)c(Cl)c1 [Example 513, 3,4-Dichloro-N-[6-(2-{4-[4-(2-fluoroethoxy)benzyl]piperazine-1-carbonyl}-1-methyl-1H-indol-6-yloxy)pyridin-3-yl]-N-methyl-benzenesulfonamide]

melting point: 234 to 236 °C
SMILES: Br.CCOc1cccc(CN2CCN(C(=O)c3cc4ccc(Oc5ccc(N(C)C(=O)c6ccc(C(F)(F)F)cc6)cn5)cc4n3C)CC2)c1 [Example 418, N-(6-{2-[4-(3-Ethoxybenzyl)piperazine-1-carbonyl]-1-methyl-1H-indol-6-yloxy}pyridin-3-yl)-N-methyl-4-trifluoromethylbenzamide hydrobromide]

melting point: 226.9 to 227.2 °C
SMILES: CCN(c1ccc(Oc2ccc3cc(C(=O)N4CCN(Cc5ccc(OCC(F)(F)F)cc5)CC4)n(C)c3c2)nc1)S(=O)(=O)c1ccc(Cl)c(Cl)c1.Cl

melting point: 204 to 208 °C
SMILES: Br.CCCOc1ccc(CN2CCN(C(=O)c3cc4c(C)c(Oc5ccc(N(C)C(=O)c6ccc(C(F)(F)F)cc6)cn5)ccc4n3C)CC2)cc1 [Example 434, N-(6-{1,4-Dimethyl-2-[4-(4-propoxybenzyl)piperazine-1-carbonyl]-1H-indol-5-yloxy}pyridin-3-yl)-N-methyl-4-trifluoromethyl-benzamide hydrobromide]

melting point: 231.2 to 231.8 °C
SMILES: CCCOc1ccc(CN2CCN(C(=O)c3cc4ccc(Oc5ccc(N(C)C(=O)c6ccc(C)cc6)cn5)cc4n3C)CC2)cc1.Cl

— patent US8551999B2, “Heterocyclic compound and pharmaceutical composition thereof” (Otsuka Pharmaceutical Co., Ltd., priority 2007, dated 2013)
